{"source": "patent US9809597B2", "about": "“Ganciclovir derivatives for modulating innate and adaptive immunity and for use in immunotherapy” (The Board of Trustees of the Leland Stanford Junior …, priority 2015, dated 2017)", "key": {"BV-2 microglia [1]": {"test_system": "BV-2 microglia", "assay": "Secreted factors analyzed by Luminex array in BV-2 supernatants", "format": "cell-based, mouse", "procedure": "(§1) BV-2 mouse microglia cells were grown in DMEM+10% FBS and THP-1 human monocyte cells were grown in RPMI-40+10% FBS+0.05 mM β-mercaptoethanol at 37° C., 5% CO2. Adherent cells were split using 1×TrypLE (Gibco). For cellular assays, cells were treated with the following concentrations of drugs as indicated in the DMEM without serum: 100-200 μM ganciclovir, 10 ng/ml IFNγ (R&D systems), 100 ng/ml LPS (Sigma-Aldrich), 1-10 μM Fludarabine (Selleckchem), 1 μM Ruxolitinib (Selleckchem), 1 μM TG-101348 (Selleckchem), 1 μM Amlexanox (Tocris bioscience) unless otherwise noted. All experiments were run in triplicates and replicated at least 3 times with cell lines and at least twice with primary microglia. Average data are shown for cell lines and representative data are shown for primary cells. Secreted signaling proteins were measured in supernatants from cultured cells stimulated with GCV and conditioned for 24 hours in the absence of serum using two independent Luminex arrays (Human Immune Monitoring Center, Stanford and Eve technologies, Canada). Nitrite assay was performed on conditioned culture supernatants of cells stimulated with drugs for 24 hours using the Griess Reagent System (Promega) according to manufacturer's instructions. To assess cellular viability, cell confluence was measured using an automated microscope (Cellavista; Roche)."}, "[2]": {"test_system": "IFNγ/LPS stimulated BV-2 microglia", "assay": "Nitrite assay (Griess) on culture supernatants", "format": "cell-based, mouse", "details": "24 hours", "procedure": "as §1"}, "primary microglia": {"test_system": "primary microglia", "assay": "RT-PCR for CXCL10 and IFNβ transcripts in primary microglia (wildtype, tk KO, STING^gt/gt)", "format": "cell-based, mouse", "details": "200 μM, 6 hours", "procedure": "Mice were housed and bred according to the Institutional Animal Care and Use Committee guidelines. Primary microglia and astrocytes were isolated from P0-P3 C57BL/6 mouse pups. Cortices from pups were isolated, meninges removed and tissue was dissociated using a 25-gauge needle. Two cortices were plated on each poly-L-lysine coated T-75 flasks in DMEM/F12+10% FBS+1% penicillin/streptomycin. Microglia and astrocyte co-cultures were maintained for 3 weeks, after which microglia were isolated using CD11b magnetic beads (Miltenyi Biotec) according to the manufacturer's instructions. Isolated microglia were allowed to recover for 1-2 days and processed for cellular assays described above.\nFor tk KO experiments only, microglia were isolated from adult mouse brains using the neural dissociation kit (Miltenyi Biotec) according to manufacturer's protocol followed by CD11b magnetic bead enrichment. Isolated cells were cultured for 3-4 days before the experiment.\nRNA was isolated from cells using RNeasy mini kit from Qiagen. DNased RNA was converted to cDNA using SuperScript III reverse transcriptase kit (Life technologies). The cDNA was used to quantify specific targets using SYBR green in Roche Lightcycler 480. ΔΔCt values normalized against the experimental control to determine fold change in mRNA for each sample compared to untreated or vehicle treated control. β-actin or Ubc or both were used as housekeeping genes. Primer sequences were obtained from PrimerBank. Fold change is shown compared to the vehicle treated or untreated cells, unless otherwise noted."}, "[3]": {"test_system": "wildtype and STING^gt/gt mice with EAE", "assay": "EAE induction and analysis", "format": "in vivo, mouse"}, "BV-2 microglia [4]": {"test_system": "BV-2 microglia", "assay": "Cell viability (cell confluence, automated microscope)", "format": "cell-based, mouse", "details": "GCV dose response", "procedure": "as §1"}, "[5]": {"test_system": "THP-1 human monocyte cells", "assay": "RT-PCR for CXCL10 in THP-1 cells", "format": "cell-based", "details": "200 μM, 8-24 hours", "procedure": "as §1, with “Roche). […]” for “Roche).”"}, "[6]": {"test_system": "wildtype and STING^gt/gt mice with EAE", "details": "mouse model for multiple sclerosis, therapeutic doses equivalent to those in humans (Ding et al. 2014); cited from earlier work"}, "[7]": {"details": "BV-2 culture supernatants, no exogenous stimulation, 24 hours GCV"}, "[8]": {"details": "adult tk1 knockout primary microglia"}, "[9]": {"details": "primary microglia lacking functional STING"}, "[10]": {"details": "STING^gt/gt mice with EAE, day 18"}, "[11]": {"details": "STING^gt/gt mice, 18 days following disease induction"}, "[12]": {"details": "cerebella of wildtype mice with EAE, day 18"}}, "data": [{"smiles": "Nc1nc(O)c2ncn(COC(CO)CO)c2n1", "note": "[GCV, Ganciclovir]", "values": [{"measurement": "CCL2", "setting": "BV-2 microglia [1]; 100 μM GCV, 24 hours", "value": "28.8 ± 1.08", "unit": "pg/mL"}, {"measurement": "IL12p70", "setting": "BV-2 microglia [1]; 100 μM GCV, 24 hours", "value": "0.34 ± 0.05", "unit": "pg/mL"}, {"measurement": "IL17A", "setting": "BV-2 microglia [1]; 100 μM GCV, 24 hours", "value": "3.5 ± 0.12", "unit": "pg/mL"}, {"measurement": "MCSF", "setting": "BV-2 microglia [1]; 100 μM GCV, 24 hours", "value": "23.76 ± 3.77", "unit": "pg/mL"}, {"measurement": "MIP1β", "setting": "BV-2 microglia [1]; 100 μM GCV, 24 hours", "value": "537.14 ± 449.94", "unit": "ng/mL"}, {"measurement": "MIP2", "setting": "BV-2 microglia [1]; 100 μM GCV, 24 hours", "value": "14.77 ± 1.50", "unit": "pg/mL"}, {"measurement": "TGFβ", "setting": "BV-2 microglia [1]; 100 μM GCV, 24 hours", "value": "6.04 ± 0.58", "unit": "pg/mL"}, {"measurement": "VEGF", "setting": "BV-2 microglia [1]; 100 μM GCV, 24 hours", "value": "1.65 ± 0.51", "unit": "pg/mL"}, {"measurement": "CCL2", "setting": "BV-2 microglia [1]; 200 μM GCV, 24 hours", "value": "28.25 ± 2.19", "unit": "pg/mL"}, {"measurement": "IL12p70", "setting": "BV-2 microglia [1]; 200 μM GCV, 24 hours", "value": "0.16 ± 0.11", "unit": "pg/mL"}, {"measurement": "IL17A", "setting": "BV-2 microglia [1]; 200 μM GCV, 24 hours", "value": "2.54 ± 1.28", "unit": "pg/mL"}, {"measurement": "IL22", "setting": "BV-2 microglia [1]; 200 μM GCV, 24 hours", "value": "3.09 ± 2.25", "unit": "pg/mL"}, {"measurement": "MCSF", "setting": "BV-2 microglia [1]; 200 μM GCV, 24 hours", "value": "25.48 ± 8.28", "unit": "pg/mL"}, {"measurement": "MIP1β", "setting": "BV-2 microglia [1]; 200 μM GCV, 24 hours", "value": "4.13 ± 3.36", "unit": "ng/mL"}, {"measurement": "MIP2", "setting": "BV-2 microglia [1]; 200 μM GCV, 24 hours", "value": "13.02 ± 4.25", "unit": "pg/mL"}, {"measurement": "TGFβ", "setting": "BV-2 microglia [1]; 200 μM GCV, 24 hours", "value": "5.36 ± 3.30", "unit": "pg/mL"}, {"measurement": "VEGF", "setting": "BV-2 microglia [1]; 200 μM GCV, 24 hours", "value": "1.56 ± 0.27", "unit": "pg/mL"}, {"measurement": "secreted CCL5 protein", "setting": "BV-2 microglia [1]; [7]", "value": "significantly increasing"}, {"measurement": "secreted CXCL10 protein", "setting": "BV-2 microglia [1]; [7]", "value": "significantly increasing"}, {"measurement": "secreted IL-18 protein", "setting": "BV-2 microglia [1]; [7]", "value": "decreasing"}, {"measurement": "secreted IL-22 protein", "setting": "BV-2 microglia [1]; [7]", "value": "significantly increasing"}, {"measurement": "secreted TNFα protein", "setting": "BV-2 microglia [1]; [7]", "value": "significantly increasing"}, {"measurement": "microglial nitric oxide production (nitrite assay)", "setting": "[2]", "value": "reduction"}, {"measurement": "CXCL10 mRNA in microglia from tk1 knockout mice", "setting": "primary microglia; [8]", "value": "at levels seen in treated wild type microglia"}, {"measurement": "IFNβ mRNA in microglia from tk1 knockout mice", "setting": "primary microglia; [8]", "value": "at levels seen in treated wild type microglia"}, {"measurement": "induction of CXCL10 mRNA in STING^gt/gt primary microglia", "setting": "primary microglia; [9]", "value": "failed to induce"}, {"measurement": "induction of IFNβ mRNA in STING^gt/gt primary microglia", "setting": "primary microglia; [9]", "value": "failed to induce"}, {"measurement": "overall Iba1 immunoreactivity", "setting": "[3]; [10]", "value": "trend towards reducing"}, {"measurement": "overall cell proliferation", "setting": "[3]; [10]", "value": "no reduction"}, {"measurement": "proliferating T-cells", "setting": "[3]; [10]", "value": "no reduction"}, {"measurement": "proliferating microglia", "setting": "[3]; [10]", "value": "no reduction"}, {"measurement": "disease severity and incidence compared to untreated mice", "setting": "[3]; [11]", "value": "not significantly different"}, {"measurement": "lethality compared to untreated mice", "setting": "[3]; [11]", "value": "even higher"}, {"measurement": "effect on EAE in mice lacking STING", "setting": "[3]; STING^gt/gt mice, GCV 100 mg/kg daily", "value": "only partially ameliorated EAE during the early phase of disease"}, {"measurement": "CD3+BrDU+ proliferating T-cells", "setting": "[3]; [12]", "value": "did not change"}, {"measurement": "Iba1+BrDU+ proliferating microglia", "setting": "[3]; [12]", "value": "significantly decreased"}, {"measurement": "numbers of BrDU+ proliferating cells", "setting": "[3]; [12]", "value": "significantly decreased"}, {"measurement": "numbers of Iba1+ microglia", "setting": "[3]; [12]", "value": "significantly decreased"}, {"measurement": "lethality", "setting": "[3]; wildtype mice, 18 days following disease induction, untreated 20%", "value": 0, "unit": "%"}, {"measurement": "disease incidence", "setting": "[3]; wildtype mice, 18 days following disease induction, untreated 100%", "value": 40, "unit": "%"}, {"measurement": "disease severity (EAE score)", "setting": "[3]; wildtype mice, GCV 100 mg/kg intra-peritoneally daily from day 3", "value": "drastically reduces disease severity"}, {"measurement": "toxicity (cell viability)", "setting": "BV-2 microglia [4]", "value": "without causing any toxicity"}, {"measurement": "induction of CXCL10 mRNA in human monocyte cell line", "setting": "[5]", "value": "induced"}, {"measurement": "disease course and pathology of EAE", "setting": "[6]", "value": "ameliorates the disease course and pathology"}]}]}
